Test results: US9273057B2 (Bristol-Myers Squibb Company, priority 2012, dated 2016)
pIC50: −log10 of the molar value. Counter-ions that a name gives are not always drawn.

Biological target: CK2A1 (CK2α/β) (Homo sapiens, UniProt P68400)
Test: CK2 kinase assay, CK2A1 (CK2α/β)
Format: biochemical
Conditions: Table A; read-out: CK2A1 (CK2α/β) (IC50)

Chain of CK2A1 (CK2α/β) (P68400 whole entry, species assumed): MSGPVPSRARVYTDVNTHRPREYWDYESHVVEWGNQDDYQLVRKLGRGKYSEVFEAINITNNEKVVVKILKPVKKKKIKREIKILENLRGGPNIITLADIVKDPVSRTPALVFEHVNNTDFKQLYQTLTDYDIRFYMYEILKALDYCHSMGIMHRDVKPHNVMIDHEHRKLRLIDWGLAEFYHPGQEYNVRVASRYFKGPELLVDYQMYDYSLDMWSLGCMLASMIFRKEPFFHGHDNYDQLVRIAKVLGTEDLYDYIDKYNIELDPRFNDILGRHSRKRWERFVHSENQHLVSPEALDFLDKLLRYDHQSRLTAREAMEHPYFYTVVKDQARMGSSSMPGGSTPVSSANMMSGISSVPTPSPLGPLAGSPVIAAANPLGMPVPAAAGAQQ
Chain of CK2A1 (CK2α/β) (P67870 whole entry partner, species assumed): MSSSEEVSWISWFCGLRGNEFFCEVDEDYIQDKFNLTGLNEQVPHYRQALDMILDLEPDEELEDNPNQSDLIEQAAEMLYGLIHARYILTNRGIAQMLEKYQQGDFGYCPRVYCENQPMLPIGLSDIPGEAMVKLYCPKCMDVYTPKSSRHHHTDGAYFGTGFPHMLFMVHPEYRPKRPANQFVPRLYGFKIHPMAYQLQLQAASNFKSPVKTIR

COC(=O)NC1CCN(c2cc(C#N)cc(Nc3nc(NC4CC4)c4ncc(C#N)n4n3)c2Cl)CC1 [Example 146, methyl (1-(2-chloro-5-cyano-3-((7-cyano-4-(cyclopropylamino)imidazo [2,1-f][1,2,4]triazin-2-yl)amino)phenyl)-4-piperidinyl)carbamate] and COC(=O)N[C@@H]1C[C@@H]2CN(c3cc(C#N)cc(Nc4nc(NC5CC5)c5ncc(C#N)n5n4)c3Cl)C[C@@H]2C1 [Example 13, (+/−) methyl ((3aR,5r,6aS)-2-(2-chloro-5-cyano-3-((7-cyano-4-(cyclopropylamino)imidazo [2,1-f][1,2,4]triazin-2-yl)amino)phenyl)octahydro-cyclopenta[c]pyrrol-5-yl)carbamate] are within 0.2 log units of each other in pIC50: 8.92 for the first, 8.77 for the second.

CC(=O)N1CCN(c2cc(C#N)cc(Nc3nc(NC4CC4)c4ncc(C#N)n4n3)c2Cl)CC1 [Example 85, 2-((3-(4-acetyl-1-piperazinyl)-2-chloro-5-cyanophenyl)amino)-4-(cyclopropylamino) imidazo[2,1-fl][1,2,4] triazine-7-carbonitrile] and N#Cc1cc(Nc2nc(NC3CC3)c3ncc(C#N)n3n2)c(Cl)c(N2CCN(C(=O)C(F)F)CC2)c1 [Example 75, 2-(2-chloro-5-cyano-3-(4-(2,2-difluoroacetyl)piperazin-1-yl)phenylamino)-4-(cyclopropylamino) imidazo[1,2-f][1,2,4] triazine-7-carbonitrile] are within 0.2 log units of each other in pIC50: 9.24 for the first, 9.39 for the second.

Compared with N#Cc1cc(CNC2CCOCC2)c(Cl)c(Nc2nc(NC3CC3)c3ncc(C#N)n3n2)c1 [Example 664, 2-((2-chloro-5-cyano-3-(((tetrahydro-2H-pyran-4-yl)amino)methyl)phenyl)amino)-4-(cyclopropylamino)imidazo[2,1-f][1,2,4]triazine-7-carbonitrile], CC(=O)N[C@H]1CCN(Cc2cc(C#N)cc(Nc3nc(NC4CC4)c4ncc(C#N)n4n3)c2Cl)C1 [Example 473, N-[(3S)-1-[(2-chloro-5-cyano-3-{[7-cyano-4-(cyclopropylamino)imidazo[2,1-f][1,2,4]triazin-2-yl]amino}phenyl)methyl]pyrrolidin-3-yl]acetamide] is 0.24 log units higher in pIC50: 9.01 for the first, 9.25 for the second. The second is the more potent here.

First: CNC(=O)CN1CC2(CCN(c3cc(C#N)cc(Nc4nc(NC5CC5)c5ncc(C#N)n5n4)c3Cl)CC2)C1 [Example 799, 2-(7-(2-chloro-5-cyano-3-((7-cyano-4-(cyclopropylamino)imidazo[2,1-f][1,2,4]triazin-2-yl)amino)phenyl)-2,7-diazaspiro[3.5]nonan-2-yl)-N-methylacetamide]
Second: CC(O)CN1CC2(CCN(c3cc(C#N)cc(Nc4nc(NC5CC5)c5ncc(C#N)n5n4)c3Cl)CC2)C1 (racemic) [Example 797, (+/−)-2-((2-chloro-5-cyano-3-(2-(2-hydroxypropyl)-2,7-diazaspiro[3.5]nonan-7-yl)phenyl)amino)-4-(cyclopropylamino)imidazo[2,1-f][1,2,4]triazine-7-carbonitrile]
The pIC50 of the first is 0.43 log units higher: 8.61 for the first, 8.18 for the second.

Going from CCNc1nc(Nc2cc(C#N)cc(N3CCC(NC(=O)OC)C(N[C@@H](C)C(N)=O)C3)c2Cl)nn2c(C#N)cnc12 (stereo in doubt) [Example 762, methyl N-[(3R,4S)-3-[(1-carbamoylethyl)amino]-1-(2-chloro-5-cyano-3-{[7-cyano-4-(ethylamino)imidazo[2,1-f][1,2,4]triazin-2-yl]amino}phenyl)piperidin-4-yl]carbamate] to CCNc1nc(Nc2cc(C#N)cc(N3CC[C@@H](NC(=O)OC)[C@H](OC(=O)C[C@H]4CC[C@H](N)CC4)C3)c2Cl)nn2c(C#N)cnc12 [Example 820, (3R,4R)-1-(2-chloro-5-cyano-3-((7-cyano-4-(ethylamino)imidazo[2,1-f][1,2,4]triazin-2-yl)amino)phenyl)-4-((methoxycarbonyl)amino)piperidin-3-yl 2-((1r,4R)-4-aminocyclohexyl)acetate hydrochloride], the pIC50 falls from 8.68 to 8.22 (0.46 log units). The first is the more potent here.

Going from CN1CCN(c2cc(C#N)cc(Nc3nc(NC4CC4)c4ncc(C#N)n4n3)c2Cl)CC1C(C)(C)O (racemic) [Example 34, (+/−) 2-((2-chloro-5-cyano-3-(3-(1-hydroxy-1-methylethyl)-4-methyl-1-piperazinyl)phenyl)amino)-4-(cyclopropylamino)imidazo [2,1-f][1,2,4]triazine-7-carbonitrile] to CN(C)C(=O)C1CN(c2cc(C#N)cc(Nc3nc(NC4CC4)c4ncc(C#N)n4n3)c2Cl)CCN1CC(F)F (stereo not drawn) [Example 565, 4-(2-chloro-5-cyano-3-((7-cyano-4-(cyclopropylamino)imidazo[2,1-f][1,2,4]triazin-2-yl)amino)phenyl)-1-(2,2-difluoroethyl)-N,N-dimethylpiperazine-2-carboxamide], the pIC50 falls from 9.04 to 6.74 (2.30 log units).

First: C[C@H](O)CC(=O)N1CC(N2CCN(c3cc(C#N)cc(Nc4nc(NC5CC5)c5ncc(C#N)n5n4)c3Cl)CC2)C1 [Example 514, 2-{[2-chloro-5-cyano-3-(4-{1-[(3S)-3-hydroxybutanoyl]azetidin-3-yl}piperazin-1-yl)phenyl]amino}-4-(cyclopropylamino)imidazo[2,1-f][1,2,4]triazine-7-carbonitrile]
Second: N#Cc1cc(Nc2nc(NC3CC3)c3ncc(C#N)n3n2)c(Cl)c(N2CCN(C3CN(C(=O)CCn4ccnc4)C3)CC2)c1 [Example 496, 2-{[2-chloro-5-cyano-3-(4-{1-[3-(1H-imidazol-1-yl)propanoyl]azetidin-3-yl}piperazin-1-yl)phenyl]amino}-4-(cyclopropylamino)imidazo[2,1-f][1,2,4]triazine-7-carbonitrile]
The pIC50 of the first is 0.33 log units lower: 8.41 for the first, 8.74 for the second. The second is the more potent here.

N#Cc1cc(Nc2nc(NC3CC3)c3ncc(C#N)n3n2)c(Cl)c(N2CC3CNCC3C2)c1 (stereo not drawn) [Example 455, 2-((2-chloro-5-cyano-3-(hexahydropyrrolo[3,4-c]pyrrol-2(1H)-yl)phenyl)amino)-4-(cyclopropylamino)imidazo[2,1-f][1,2,4]triazine-7-carbonitrile] and N#Cc1cc(Nc2nc(NC3CC3)c3ncc(C#N)n3n2)c(Cl)c(N2CC(N3CCNCC3)C2)c1 [Example 155, 2-((2-chloro-5-cyano-3-(3-(1-piperazinyl)-1-azetidinyl)phenyl)amino)-4-(cyclopropylamino)imidazo [2,1-f][1,2,4]triazine-7-carbonitrile] are within 0.2 log units of each other in pIC50: 9.31 for the first, 9.38 for the second.

CCNc1nc(Nc2cc(C#N)cc(N3C[C@@H]4C[C@H]3CN4C)c2Cl)nn2c(C#N)cnc12 [Example 773, 2-((2-chloro-5-cyano-3-((1S,4S)-5-methyl-2,5-diazabicyclo[2.2.1]heptan-2-yl)phenyl)amino)-4-(ethylamino)imidazo[2,1-f][1,2,4]triazine-7-carbonitrile] and CCNc1nc(Nc2cc(C#N)cc(N3CC(N4CCN(C)CC4)C3)c2Cl)nn2c(C#N)cnc12 [Example 360, 2-((2-chloro-5-cyano-3-(3-(4-methylpiperazin-1-yl)azetidin-1-yl)phenyl)amino)-4-(ethylamino)imidazo[2,1-f][1,2,4]triazine-7-carbonitrile] are within 0.2 log units of each other in pIC50: 9.19 for the first, 9.14 for the second.

CCNc1nc(Nc2cc(C#N)cc(N3CCN([C@H]4C[C@@H](O)C4)CC3)c2Cl)nn2c(C#N)cnc12 [Example 610, 2-[(2-chloro-5-cyano-3-{4-[(1a,3s)-3-hydroxycyclobutyl]piperazin-1-yl}phenyl)amino]-4-(ethylamino)imidazo[2,1-f][1,2,4]triazine-7-carbonitrile] and CN1CCN(C2CCN(c3cc(C#N)cc(Nc4nc(NC5CC5)c5ncc(C#N)n5n4)c3Cl)CC2)CC1 [Example 12, 2-((2-chloro-5-cyano-3-(4-(4-methyl-1-piperazinyl)-1-piperidinyl)phenyl)amino)-4-(cyclopropylamino)imidazo [2,1-f][1,2,4]triazine-7-carbonitrile] are within 0.2 log units of each other in pIC50: 8.97 for the first, 8.94 for the second.

First: COC(=O)N[C@H]1CCN(C2CN(c3cc(C#N)cc(Nc4nc(NC5CC5)c5ncc(C#N)n5n4)c3Cl)C2)C[C@@H]1O (racemic) [Example 154, (+/−) methyl ((3S,4S)-1-(1-(2-chloro-5-cyano-3-((7-cyano-4-(cyclopropylamino)imidazo [2,1-f][1,2,4]triazin-2-yl)amino)phenyl)-3-azetidinyl)-3-hydroxy-4-piperidinyl)carbamate]
Second: COC(=O)N[C@@H]1CCN(c2cc(C#N)cc(Nc3nc(NC4CC4)c4ncc(C#N)n4n3)c2Cl)C[C@H]1OC(=O)C(C)OP(=O)(O)O (stereo partly drawn) [Example 197, (3R,4R)-1-(2-chloro-5-cyano-3-((7-cyano-4-(cyclopropylamino)imidazo[2,1-f][1,2,4]triazin-2-yl)amino)phenyl)-4-((methoxycarbonyl)amino)-3-piperidinyl 2-(phosphonooxy)propanoate]
The pIC50 of the first is 1.10 log units higher: 9.40 for the first, 8.30 for the second.

CN1CCN(CCCc2cc(C#N)cc(Nc3nc(NC4CC4)c4ncc(C#N)n4n3)c2Cl)CC1 [Example 577, 2-((2-chloro-5-cyano-3-(3-(4-methylpiperazin-1-yl)propyl)phenyl)amino)-4-(cyclopropylamino)imidazo[2,1-f][1,2,4]triazine-7-carbonitrile] and N#Cc1cc(Nc2nc(NC3CC3)c3ncc(C#N)n3n2)c(Cl)c(N2CCN(CC(F)F)CC2)c1 [Example 52, 2-((2-chloro-5-cyano-3-(4-(2,2-difluoroethyl)-1-piperazinyl)phenyl)amino)-4-(cyclopropylamino)imidazo[2,1-f][1,2,4]triazine-7-carbonitrile] are within 0.2 log units of each other in pIC50: 9.14 for the first, 9.18 for the second.

First: COCCOCCNc1cc(C#N)cc(Nc2nc(NC3CC3)c3ncc(C#N)n3n2)c1Cl [Example 616, 2-((2-chloro-5-cyano-3-((2-(2-methoxyethoxy)ethyl)amino)phenyl)amino)-4-(cyclopropylamino)imidazo[2,1-f][1,2,4]triazine-7-carbonitrile]
Second: N#Cc1cc(NC(=O)CN2CCOCC2)c(Cl)c(Nc2nc(NC3CC3)c3ncc(C#N)n3n2)c1 [Example 621, N-(2-chloro-5-cyano-3-((7-cyano-4-(cyclopropylamino)imidazo[2,1-f][1,2,4]triazin-2-yl)amino)phenyl)-2-morpholinoacetamide]
The pIC50 of the first is 0.28 log units higher: 9.07 for the first, 8.79 for the second. The first is the more potent here.

For N#Cc1cc(Nc2nc(NC3CC3)c3ncc(C#N)n3n2)c(Cl)c(N2CCN(C(=O)Cc3nnn[nH]3)CC2)c1 [Example 99, 2-((2-chloro-5-cyano-3-(4-(1H-tetrazol-5-ylacetyl)-1-piperazinyl)phenyl)amino)-4-(cyclopropylamino) imidazo[2,1-f][1,2,4] triazine-7-carbonitrile], the pIC50 was 9.49.
